This assay relates to 556581-035-R-J1-PDC complex spheroid viability. Briefly: Anticancer human tumor 556581-035-R-J1-PDC patient-derived ovarian carcinoma cell line growth inhibition. The note with it: for viability, T/C: stronger effect = lower value. An excerpt: Multicellular complex tumor spheroid response to LSD1 Inhibitor Iadademstat in combination with a variety of drugs and investigational agents in selected tumor cell lines
The current study was undertaken to assess response to LSD1 inhibitors in combination with standard-of-care drugs and investigational agents in solid tumor complex spheroid models as well as in the K-562 leukemia. Complex spheroids include a stromal component modeled by human endothelial cells (HUVEC) and fibroblasts modeled by human mesenchymal stem cells (MSCs). The concentration ranges selected for each drug and investigational agent were based upon clinically achievable concentrations if the clinical Cmax of the agent was known.
Compounds. The drugs and investigational agents used in this study are listed on Table 1. All of the agents used, including staurosporine (NSC755774) and gemcitabine (NSC613327), were obtained from the Developmental Therapeutics Program, NCI. FDA-approved anticancer drugs are available from the NCI at http://dtp.nci.nih.gov/branches/dscb/oncology_drugset_explanation.html. Drugs and investigational agents were >95% pure by proton nuclear magnetic resonance (NMR) and liquid chromatography/mass spectrometry (LC/MS). Stock solutions were prepared at 400x in DMSO, stored at -70 degrees C, and diluted in fresh medium prior to their use. The final concentration of DMSO in cell culture wells never exceeded 0.25% (v/v). The FDA-approved anticancer drug set is available from the Developmental Therapeutics Program at https://dtp.cancer.gov/organization/dscb/obtaining/available_plates.htm. All drugs and investigational agents were tested over a range starting from a high concentration at or near the clinical Cmax and decreasing in half-log increments. If the clinical Cmax for an agent had not been determined, the highest concentration tested was 10 microM.
Cell Lines. The patient-derived cancer cell (PDC) lines: 292921-168-R-J2-PDC, K24384-001-R-PDC, and 521955-158-R2-J5-PDC pancreatic carcinomas, 556581-035-R-J1 ovarian carcinoma, 324938-238-R-J1-PDC, 855422-203-R-J1-PDC and 883617-216-R-J1-PDC urothelial bladder carcinomas, 743489-274-T-PDC renal cell carcinoma, 138582-R-J1 Merkel cell tumor, K60290-347-R-J1 and K57222-313-R-J1-PDC glioblastomas, 653999-131-R-J2-PDC, LG0703-F948-PDC, and 349418-098-R-PDC non-small cell lung carcinomas, 885512-296-R-J2-PDC, 171881-019-R-J1-PDC breast carcinomas and 186277-243-T-J2-PDC and 233499-124-R-J2-PDC colon carcinomas were obtained from the NCI Patient-Derived Models Repository (PDMR, https://pdmr.cancer.gov). The established cell lines NCI/ADR-RES (RRID:CVCL_14520 and OVCAR-5 (RRID:CVCL_1628) ovarian carcinomas, 786-O (RRID:CVCL_1051) and A498 (RRID:CVCL_A498) renal cell carcinoma, NCI-H211 (ATCC, cat. CRL-5824; RRID:CVCL_1529), NCI-H196 (ATCC, cat. CRL-5823, RRID:CVCL_1509), SW 1271 (ATCC, cat. CRL-2177, RRID:CVCL_1716) and NCI-H1876 (ATCC, cat. CRL-5902, RRID:CVCL_1503) small cell lung carcinomas, MDA-MB-231 (RRID:CVCL_0062) and MDA-MB-468 (RRID:CVCL_0419)breast carcinomas (10-12). Pooled donor human umbilical vein endothelial cells (HUVEC, Lonza, cat. CC-2519) and human mesenchymal stem cells (hMSC, Lonza, cat. PT-2501) were purchased from Lonza (Walkersville, MD).
Cell Culture. All cells were maintained in an incubator at 37 degrees C and 5% CO2 with 95% humidity. The PDC lines were cultured according to standard operating procedures established by the NCI PDMR (https://pdmr.cancer.gov). Briefly all PDCs were thawed and cultured in Matrigel-coated flasks prepared with a working solution of 1X Ham's F-12 nutrient mix, without supplementation (Invitrogen, Waltham, MA, cat. 11765054), 100 U/mL penicillin-streptomycin (Invitrogen, cat. 15140122), and 2.5% Matrigel (Corning Inc., Corning, NY, cat. 354248) for the first three passages. […]

Where “and” joins values, the source holds several entries; their conditions need not be identical. Equal values may be shown once.
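Also: spheroids exposed to agents for seven days.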

One may read the viability, T/C as the result in the treated group divided by that in the control group, in per cent. As usually defined, the IC50 is the point on the concentration scale where inhibition reaches its midpoint. For `CC(C)c1c(-c2ccccc2)nc2c(C#N)c[nH]n2c1=O`, the viability, T/C runs as follows: (compound 0.0316 µM) 93.8% and 102%; (compound 0.1 µM) 105% and 100%; (compound 0.316 µM) 107%; (compound 1 µM) 91.4% and 101%; (compound 3.16 µM) 75.4% and 90.9%; (compound 10 µM) 72.7% and 71.9%. Further, the 50% inhibitory concentration (IC50) (curve of compound) was over 10000 nM.

For the compound `CC1COCCN1c1cc(C2(S(C)(=N)=O)CC2)nc(-c2ccnc3[nH]ccc23)n1` (stereo unspecified), the viability, T/C (compound 0.0316 µM) is 107%; the viability, T/C (compound 0.1 µM) was 110% and 94.2%; the viability, T/C (compound 0.316 µM) was 95.2% and 97.8%; the viability, T/C (compound 1 µM) was 79.8% and 74.4%; the viability, T/C (compound 3.16 µM) was 68.2% and 69.1%; the viability, T/C (compound 10 µM) was 62.3% and 52.5%. For the same compound, the concentration for half-maximal inhibition (IC50) (curve of compound) was over 10000 nM.

Regarding `COc1ccc([C@@H](O)c2cc(-c3ncnc4cc(N5CCOCC5)ccc34)c(F)cc2Cl)nn1`, the viability, T/C is, setting by setting: (compound 0.0316 µM) 91.9% and 89.7%; (compound 0.1 µM) 83.5% and 83.2%; (compound 0.316 µM) 66.5% and 63.4%; (compound 1 µM) 50.3% and 48.7%; (compound 3.16 µM) 36.8% and 42.1%; (compound 10 µM) 29.6% and 27.5%. Also, the IC50 (curve of compound) is 993 nM and 1070 nM.

Turning to `NC1CC1c1ccc(-c2cccc(O)c2)cc1` (stereo unspecified), the viability, T/C by setting is: (compound 0.1 µM) 91.5% [middle of 4 runs]; (compound 3.16 µM) 89.2% [middle of 24 runs]. The IC50 (compound alone, run of 02/21/2022) was over 10000 nM.

With `NC1CCC(NC2CC2c2ccccc2)CC1` (stereo unspecified), for the setting “compound 0.316 µM”, the viability, T/C is 85.1% and 84.9%. For the same compound, the IC50 (compound alone, run of 02/15/2022) was over 10000 nM.

Take `Nc1ncn(C2CC(O)C(CO)O2)c(=O)n1` (stereo unspecified) + NC1CC1c1ccc(-c2cccc(O)c2)cc1: the IC50 was over 1000 nM (curve of first compound, second compound 0.1 µM); over 1000 nM (curve of first compound, second compound 0.316 µM); over 1000 nM (curve of first compound, second compound 1 µM); over 1000 nM (curve of first compound, second compound 3.16 µM); over 1000 nM (curve of first compound, second compound 10 µM). The viability, T/C is, setting by setting: (second compound 0.1 µM, first compound 0.00316 µM) 78.6%; (second compound 0.1 µM, first compound 0.01 µM) 103%; (second compound 0.1 µM, first compound 0.0316 µM) 76.2%; (second compound 0.1 µM, first compound 0.1 µM) 75.2%; (second compound 0.1 µM, first compound 0.316 µM) 72.4%; (second compound 0.1 µM, first compound 1 µM) 77.8%. In addition, the viability, T/C is, setting by setting: (second compound 0.316 µM, first compound 0.00316 µM) 103%; (second compound 0.316 µM, first compound 0.01 µM) 101%; (second compound 0.316 µM, first compound 0.0316 µM) 77.5%; (second compound 0.316 µM, first compound 0.1 µM) 69.5%; (second compound 0.316 µM, first compound 0.316 µM) 62.8%; (second compound 0.316 µM, first compound 1 µM) 73.5%. In addition, the viability, T/C is, setting by setting: (second compound 1 µM, first compound 0.00316 µM) 94.4%; (second compound 1 µM, first compound 0.01 µM) 85.3%; (second compound 1 µM, first compound 0.0316 µM) 97.4%; (second compound 1 µM, first compound 0.1 µM) 75.2%; (second compound 1 µM, first compound 0.316 µM) 55.2%; (second compound 1 µM, first compound 1 µM) 72.4%. The viability, T/C reads like this: (second compound 3.16 µM, first compound 0.00316 µM) 108%; (second compound 3.16 µM, first compound 0.01 µM) 102%; (second compound 3.16 µM, first compound 0.0316 µM) 89.4%; (second compound 3.16 µM, first compound 0.1 µM) 54.9%; (second compound 3.16 µM, first compound 0.316 µM) 62.3%; (second compound 3.16 µM, first compound 1 µM) 69.1%. Further, the viability, T/C was 98.8% (second compound 10 µM, first compound 0.00316 µM); 116% (second compound 10 µM, first compound 0.01 µM); 90.7% (second compound 10 µM, first compound 0.0316 µM); 77.4% (second compound 10 µM, first compound 0.1 µM); 86% (second compound 10 µM, first compound 0.316 µM); 66.9% (second compound 10 µM, first compound 1 µM).
